{
  "source": "paper PMC6060383",
  "about": "“Synthesis and pharmacological evaluation of novel isoquinoline N-sulphonylhydrazones designed as ROCK inhibitors” (Journal of Enzyme Inhibition and Medicinal Chemistry, 2018)",
  "key": {"[1]": {"biological_target": "T1, ROCK2 human recombinant enzyme (Homo sapiens, UniProt O75116)", "T1 construct": "purchased EUROFINS-CEREP France (contract assay, study numbers 100033685 and 100040481); host or cells: Sf21 insect cells", "T1 sequence (O75116 1-543 limits assumed)": "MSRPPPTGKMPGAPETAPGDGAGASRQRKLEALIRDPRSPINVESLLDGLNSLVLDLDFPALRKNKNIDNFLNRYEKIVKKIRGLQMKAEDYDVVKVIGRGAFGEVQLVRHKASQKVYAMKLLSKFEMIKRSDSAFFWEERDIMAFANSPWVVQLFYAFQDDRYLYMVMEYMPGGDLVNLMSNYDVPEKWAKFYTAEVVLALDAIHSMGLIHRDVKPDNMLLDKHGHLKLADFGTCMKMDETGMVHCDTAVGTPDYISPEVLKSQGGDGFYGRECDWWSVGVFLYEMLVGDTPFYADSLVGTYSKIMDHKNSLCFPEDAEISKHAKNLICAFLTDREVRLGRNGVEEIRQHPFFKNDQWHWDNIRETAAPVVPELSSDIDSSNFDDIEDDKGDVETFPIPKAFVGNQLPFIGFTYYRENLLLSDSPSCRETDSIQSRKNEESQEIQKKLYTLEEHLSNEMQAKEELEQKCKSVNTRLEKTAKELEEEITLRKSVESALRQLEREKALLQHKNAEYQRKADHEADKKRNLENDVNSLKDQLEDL", "test": "ROCK2 inhibition assay (Eurofins-Cerep, phosphorylation of Ulight-RRRSLLE substrate)", "assay_type": "biochemical", "procedure": "The analysis was performed using software developed at Cerep (Hill software) and GraphPad Prism® 5.0 (GraphPad Software, Inc., San Diego, CA) and validated through comparison with results generated using the SigmaPlot 4.0 software.\nPrior to this assay, we evaluated the solubility of these compounds in water (buffer pH 7.4) to ensure that the inhibition percentages were not influenced by the precipitation of the compounds under test conditions."}, "[2]": {"test": "Water solubility assay (UV spectrophotometric method)", "assay_type": "physicochemical", "details": "aqueous buffer, thermodynamic from solid, water (buffer pH 7.4), stirring 4 h at 37 °C", "procedure": "The solubility assay was performed considering the absorptivity of compounds under ultraviolet spectroscopy as described by Schneider et al.[20] Assay wavelength was determined through λmax characteristic of each compound. Saturated aqueous solutions were prepared (0.8–1.0 mg/mL) and kept under stirring for 4 h at 37 °C. The supernatant was filtered in […] filters and transferred to a quartz cuvette (10 mm) for spectra acquisition. Solubility was determined by linear regression used as Excel graph plots, solutions were prepared by dilutions of the original solution in methanol. Data were collected in triplicate and the mean values were used to create the graph plots. The correlation coefficient (R^2) values were between 0.9982 and 1.\nThe N-sulphonylhydrazone derivatives 5a–h were evaluated for their ability to inhibit both ROCK1 and ROCK2 isoforms by measuring the phosphorylation of the Ulight-RRRSLLE substrate using human recombinant enzymes expressed in Sf9[23] and Sf21^24 cells, respectively. Prior to this assay, we evaluated the solubility of these compounds in water (buffer pH 7.4) to ensure that the inhibition percentages were not influenced by the precipitation of the compounds under test conditions. The enzymatic assay was initially performed at a screening concentration of 3 μM, which is capable of guaranteeing the solubility of most of the compounds, and the obtained results are shown in Table 2."}, "[3]": {"tested_on": "MDA-MB 231 cells", "test": "Plasma membrane integrity assay (LDH)", "assay_type": "cell-based, human", "details": "0.1 to 30 µM, 24 and 48 h", "procedure": "The human mammary gland/breast epithelial cell line MDA-MB 231 was obtained from the American Type Culture Collection (ATCC® HTB-26™) and this use was approved by the Ethics Committee for Animal Care and Use in Scientific Research from the Federal University of Rio de Janeiro. Cells were routinely grown in RPMI medium containing 10% foetal bovine serum (FBS), 1% L-glutamine and 1% penicillin-streptomycin, in a humidified 5% CO2 atmosphere at 37 °C. Cells were cultured up to 70–100% confluence and then some cultures were treated with the compounds at different concentrations for 24 or 48 h. All cell culture reagents were purchased from Invitrogen (São Paulo, Brazil).\nTo measure plasma membrane integrity, we assayed serum lactate dehydrogenase (LDH) levels and calculated percentages of LDH release to the medium. LDH activity was measured spectrophotometrically using a commercial kit (Doles, Goiás, Brazil). […] Then, 10 μl of NAD were added and absorbance intensities were measured in a microplate reader (FlexStation® 3 Reader, Molecular Devices) at 490 nm. The percentage of LDH release was calculated by ([LDH] sample ×100)/total [LDH]. […]\nWe also analysed the plasma membrane integrity by measuring the serum lactate dehydrogenase (LDH) levels in the culture medium to confirm the cell viability data. […]"}},
  "data": [
    {"smiles": "O=S(=O)(N/N=C/c1ccccc1)c1cccc2cnccc12", "note": "[Compound 5b, (E)-N′-benzylideneisoquinoline-5-sulphonohydrazide]", "values": [
      {"measurement": "IC50", "setting": "[1]; human recombinant ROCK2, five-point assay, 1 to 50 µM, mean of two experiments", "result": 7.1, "unit": "µM"},
      {"measurement": "inhibition at 3 µM", "setting": "[1]; screening concentration 3 μM, average of two experiments", "result": 24.2, "unit": "%"},
      {"measurement": "melting point", "result": 172, "unit": "°C"},
      {"measurement": "solubility at 4 h", "setting": "[2]", "result": 54, "unit": "µM"},
      {"measurement": "LDH levels in culture medium / cytotoxicity in LDH assay (result in words)", "setting": "[3]", "result": "not altered"}
    ]}
  ]
}
